Laboratory results: PubChem BioAssay AID179 (DTP/NCI, 2004)
“And” between values parts separate entries of the source, which are not always exact repeats. Identical values can stand only once. The source made the active and inactive calls.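 How the source made its calls: active means compounds giving half or more protection of infected cells from virus-caused growth loss, again on retest; inactive means the rest.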

System: CEM cells HIV-1 protection, formazan growth assay
Experiment: NCI AIDS Antiviral Assay
Conditions: for IC50: measured here: growth of uninfected CEM cells
Summary of the method: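 Human CEM cells, uninfected and HIV-1-infected, received five drug concentrations, and growth was read by soluble formazan assay. Compounds giving at least 50% protection were retested; reproducible 100% protection defined confirmed active.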

SMILES | EC50 [µM] | IC50 | outcome
NCCOB(c1ccccc1)c1ccccc1 | > 200 | 38.9 µM | 
CCOP(=S)(N/N=C1/CCCC(C)C1)OCC (stereo unspecified) | > 200 | 102 µM | 
O=c1[nH]c(N/N=C\C(O)C(O)C(O)CO)nc2ccccc12 (stereo unspecified) | > 200 | > 200 µM and 97.7 µM | 
CC(=O)OCC1OC(n2c(Br)nc3c2c(=O)n(C)c(=O)n3C)C(OC(C)=O)C1OC(C)=O (stereo unspecified) | > 200 | 69.2 µM | 
CC(=O)Nc1ccccc1-c1ccccc1NC(C)=O |  |  | inactive
CC(=O)OI1NC(=O)c2ccccc21 | 36.3 | 126 µM | 
CCCc1ccc(NCc2cc(OC)c(OC)c(OC)c2)cc1 | > 74.1 | 31.6 µM | 
Nc1ccc(C(=O)O)c2[nH]c3ccccc3c(=O)c12 |  |  | inactive
C(=N\NC1=NCCN1)/c1ccc(-c2cn3cc(/C=N/NC4=NCCN4)ccc3n2)cc1 | > 53.7 | 3.72 µM | 
Cc1cc(S(=O)(=O)Nc2nc3ccccc3[nH]2)c(S)cc1Cl | > 200 | 55 µM | 
CCN(CC)C1Oc2cc3c(cc2C(c2cc(OC)c(OC)c(OC)c2)C1C)OCO3 (stereo unspecified) | > 100 | 0.537 µM | 
COc1cc(O)cc(O)c1C(=O)CC(Cl)(Cl)Cl | > 316 | 170 µM | 
CC(C)CN1CC(C)C(=O)NC1=O (stereo unspecified) |  |  | inactive
N#C/C(=C/n1c(=S)sc2ccccc21)c1nc2ccccc2s1 | > 200 | 102 µM | 
CCN(CC)c1ccc(N=Nc2ccc(-c3nc4cccnc4o3)cc2)cc1 | > 19.5 | > 19.5 µM | 
COC(=O)C(Cc1c[nH]c2ccccc12)NC(=O)C(Cc1c[nH]c2ccccc12)NC(=O)OCc1ccccc1 (stereo unspecified) |  |  | inactive
CCOC(CN=C=S)OCC | > 200 | 27.5 µM | 
COC(=O)c1ccccc1CC1Cc2cccc(C)c2C1=O (stereo unspecified) | > 200 | 53.7 µM | 

SMILES | EC50 [µM] | IC50 | outcome
Clc1ccc(C2=Nc3ccccc3SC(c3ccc(Cl)c(Cl)c3)C2)c(Cl)c1 (stereo unspecified) | > 15.8 | > 15.8 µM | 
COc1ccc(CNc2nc3ccccc3nc2-c2cccs2)cc1OC | > 19.1 | 17 µM | 
CC1(C)OC(=O)C(=C=[N-])/C1=C\[n+]1ccccc1 | > 417 | > 417 µM | 
Cc1nc(N)c2nc(Nc3ccccc3)sc2n1 | > 141 | 66.1 µM | 
C=C[Si](C)(C)COC(=O)/C(C#N)=C/C=C/c1ccccc1 | > 9.12 | > 9.12 µM | 
Clc1ccc(CN2COc3c(ccc4cccnc34)C2)cc1 | > 200 | 1.82 µM | 
C=CCCCCCCCCCOC1C=CC(O)C(CO)O1 (stereo unspecified) | > 200 | 35.5 µM | 
c1snnc1-c1cnns1 | > 200 | > 200 µM | 
N#C/C(=C\NC(=S)N=Nc1c(O)[nH]c2ccccc12)c1nc2ccccc2s1 | > 200 | > 200 µM | 
CCCCCCN(CCCCCC)C(=O)Cc1c2n(c3ccccc13)Cc1ccccc1-2 | > 6.31 | > 6.31 µM | 
Cc1ccc(Nc2nc(N)nc(N)c2N=O)cc1C | > 200 | > 200 µM | 
O=[N+]([O-])c1ccc(-n2nnc(C3=NCCN3)c2-c2ccccc2)cc1 | > 30.2 | > 30.2 µM | 
C[N+](C)(C)CC(=O)N/N=C(/Cc1nc2ccc([N+](=O)[O-])cc2[nH]c1=O)C(=O)Nc1cc(C(F)(F)F)ccc1Cl | > 295 | 120 µM | 
Cc1cn(C2CC(OP(=O)(O)OCC3CCC(n4ccc(N)nc4=O)O3)C(CO)O2)c(=O)[nH]c1=O (stereo unspecified) | 0.204 | 35.5 µM | 
CCCCCCCOc1ccc(/C=C\c2cc[n+](CCCCCCCC[n+]3ccc(/C=C\c4ccc(OCCCCCCC)cc4)cc3)cc2)cc1 | > 6.46 | > 6.46 µM | 
COc1ccc(Cc2cnc(N)nc2N)cc1OC |  |  | inactive
COc1ccc(N)c(N2C(=O)c3ccccc3C2=O)c1 | > 200 | > 200 µM | 
C=C1C2CC[C@@]3(CC[C@@H]4[C@@]5(C)CCC[C@@]4(CN4CCO[C@H]45)[C@@H]3C2)[C@@H]1O |  |  | inactive
